Data reported in a melting point compilation (Tetko et al.; mined from patent text by program, amines drawn as free bases though some values may be those of a salt).

Row | SMILES | melting point [°C]
1 | Cc1ccc(C(=O)Nc2ccccc2C(CCC(=O)O)=NO)cc1 | 165 to 168
2 | CCOC(=O)COc1cc(C2C(C(=O)OC)=C(C)NC(C)=C2C(=O)OC)ccc1OC | 170
3 | O=C(Nc1ccccc1O)c1ccc(OCCCCc2ccccc2)cc1 | 116 to 117
4 | COc1cc2c(cc1Nc1ncc(Cl)c(N[C@H]3[C@@H](C(N)=O)[C@@H]4C=C[C@H]3C4)n1)CCN(CC(=O)N1CCN(C)CC1)CC2 | 190
5 | CC(=O)OCC(=O)Nc1ccc(C(CC2CCCC2)C(=O)Nc2nccs2)cc1 (configuration not stated) | 90 to 95
6 | COc1cc(CN2Cc3cc(OC)c(O)cc3CC2C)cc(OC)c1 (configuration not stated) | 155 to 158
7 | COc1cc(S(=O)(=O)N2CCN(C(=O)C=C(c3ccccc3)c3ccccc3)CC2)cc(OC)c1OC | 163 to 165
8 | O=Cc1ccc(-c2ccccc2Cl)cc1 | 124 to 125
9 | O=C1CC[C@H](COC(c2ccccc2)(c2ccccc2)c2ccccc2)N1CCCc1ccccc1 | 109
10 | CCOC(=O)Cn1cc(Cc2nc3c(F)c(F)cc(F)c3s2)c2ccccc21 | 110 to 111
11 | CC(C)C(C)(C(N)=O)N1C(=O)c2ccc3ccn(C)c3c2C1=O (configuration not stated) | 184 to 189
12 | O=C(CO)Nc1ccc(O)cc1 | 141 to 143
13 | COP(=O)(OC)[C@H](C)NC(=O)[C@H](C)NC(=O)CNC(=O)CNC(=O)OCc1ccccc1 | 124 to 127
14 | CCOc1ccc(CC)cc1-c1nc2ccc(C(=O)O)cc2c(=O)[nH]1 | > 310
15 | CC(=O)N(C)N(C)c1ccc(CCn2cnc3cc(-c4ccc(Cl)cc4)sc3c2=O)cc1 | 227 to 228
16 | NS(=O)(=O)c1ccc(CCN2C(=O)c3ccccc3C2(O)c2ccccc2)cc1 (configuration not stated) | 225
17 | Brc1c[nH]c2ccc(Nc3ncnc4cc(-c5ccccc5)sc34)cc12 | 201 to 203
18 | COc1ccc(C(=O)N(C)c2ccc(CO)cc2)cc1 | 85 to 90
19 | CCCc1c(OCCCOc2ccc(Sc3ccccc3CC(=O)O)cc2)ccc(C(C)=O)c1O | 123 to 124
20 | COC(=O)COc1c(Cl)cc(C(=O)CBr)cc1Cl | 89 to 90
21 | COC(=O)Nc1cc(Cl)nc(N)n1 | 225 to 226
22 | CNC(c1cccc(OCOC)c1)C1CCCCC1O (configuration not stated) | 87 to 89
23 | CCOC(=O)CCN(C1(C(=O)O)CCCC1)S(=O)(=O)c1ccc(Oc2ccc(F)cc2)cc1 | 164 to 166

Row | SMILES | melting point [°C]
24 | CCNc1nc(-c2ccc(NC(=O)NCc3cccnc3)cc2)ccc1C(=O)NCCN1CCCCC1 | 164 to 165
25 | CC(C)(C)NCc1cc(Br)cc(Br)c1O | 173 to 175
26 | COC(=O)c1nc2c(NC(=O)C(C)(C)C)cccn2c1C | 132
27 | COc1ccc(N=C2C=CC(=O)C=C2)c(CO)c1 | 87 to 89
28 | CC(C)c1cc(C(=O)NCc2ccccc2)c(N)s1 | 170 to 172
29 | O=C(NC1CN(C(=O)Nc2ccc(OC(F)(F)F)c(Cl)c2)N=C1c1ccc(Br)cc1)c1ccc(Cl)cc1 (configuration not stated) | > 200
30 | Cc1c(-c2ccccc2)c2cc(Cl)ccc2n1CC(N)=O | 223 to 224
31 | COC(=O)CCCCCSC1=CC(OC2CCCCO2)CC1=O (configuration not stated) | 41 to 42
32 | CC(C)(C)c1csc(-c2cc3cc(OCc4cccc(C#N)c4)ccc3o2)n1 | 104 to 106
33 | COc1cc(C=CC(=O)C(C)C(=O)C=Cc2ccc(O)c(OC)c2)ccc1O (configuration not stated) | 180 to 183
34 | CCOC(=O)C1C(c2ccc(OC)cc2)=NCC1c1ccc2c(c1)OCO2 (configuration not stated) | 80 to 81
35 | CCOc1nc2nc(C(OC(C)=O)C3(Br)C(=O)N4C(C(=O)OCc5ccc([N+](=O)[O-])cc5)=CSC43)cn2c2c1CCC2 (configuration not stated) | 119
36 | CC(C)(C)OC(=O)N1CC(O)C(N=[N+]=[N-])C1 (configuration not stated) | 34 to 36
37 | Nc1nc(=O)n(C(=O)OCc2ccccc2)cc1F | 212 to 215
38 | CC(Nc1nc(N)nc(C(F)(F)F)n1)c1ccc(Cl)cc1 (configuration not stated) | 99
39 | NCCNC(=O)c1ccc2c(c1)OCO2 | 120 to 123
40 | O=C(CC(F)(F)F)CS(=O)(=O)C(c1ccc(Cl)cc1)c1ccc(Cl)cc1 | 48 to 50
41 | CC(=O)OCCOc1cnc(-c2ncc([N+](=O)[O-])n2C)nc1 | 148 to 150
42 | CNc1cccc(-c2ccc(C(=O)O)c(=O)[nH]2)c1 | 283 to 284
43 | O=C(O)CCCNc1ccnn1-c1c(Cl)cc(C(F)(F)F)cc1Cl | 160 to 162
44 | Cc1ccc(Nc2nnc(-c3cccc(OCc4ccccc4)c3)s2)cc1Cl | 211 to 212
45 | CC(=O)C(C(=O)c1ccccc1)=C1CCCN1 | 106 to 108
46 | Oc1ccc2c(nc(C(F)F)n2-c2nc(N3CCOCC3)nc(N3CCOCC3)n2)c1Cl | > 250

Row | SMILES | melting point [°C]
47 | CCCN1CCCC2CC3=C(CCC(=O)N3)CC21 (configuration not stated) | 183 to 184
48 | Cc1ccnc2c(N)cc3c(c12)OCO3 | 118 to 120
49 | CCn1c(C)c(C2(c3c(-c4ccccc4)c(-c4ccccc4)c4ccccn34)OC(=O)c3cccnc32)c2ccccc21 (configuration not stated) | 206 to 208
50 | CC(=S)NC[C@H]1CN(c2ccc(N3CCC(=O)N(C)CC3)c(F)c2)C(=O)O1 | 157 to 158
51 | O=C(O)c1c(OCCF)cccc1OCCF | 57 to 58
52 | CC(C)(C)OC(=O)N1CCN(c2ccc(O)c(C=O)c2)CC1 | 84 to 86
53 | CN(CCO)C(=O)Nc1ccc2c(c1Cl)C(c1ccccc1F)=NCC(=O)N2C | 218 to 220
54 | O=C(NO)c1ccc(OC(=O)C2(c3ccccc3)CCCCC2)cc1 | 142 to 144
55 | OC(C1=NCCN1)(c1ccccc1)c1ccccn1 (configuration not stated) | 152 to 154
56 | COC(=O)c1c(C)[nH]c(C)c1C1=CC(=O)c2ccccc2C1=O | 209 to 210
57 | CCc1nn(C)c2c1C(c1ccccc1)=NCC(C(=NO)C(=O)OC)=N2 | 225 to 227
58 | CCOC(=O)c1sc2ccc(OC)cc2c1OCC | 42 to 43
59 | COC(=O)C1=C(C)NC(C)=C(C(=O)OCCCCCCCCCCCN2C(=O)c3ccccc3C2=O)C1c1cccc([N+](=O)[O-])c1 (configuration not stated) | 130 to 132
60 | O=C(NCCO[N+](=O)[O-])c1cnc(-c2ccccc2)s1 | 148 to 149
61 | CNC(=O)n1nc(Oc2ncc(C(F)(F)F)cc2Cl)cc1C | 85 to 86
62 | O=C1Nc2c(Cl)cc(Cl)cc2C12CCCC2 | 175 to 176
63 | Cc1[nH]c2ccc(OC(C)C(C)N3CCCC3)cc2c1C(=O)OCc1ccccc1 (configuration not stated) | 94 to 98
64 | CCOC(=O)Cn1c2cccccc-2c(C(C)=O)c1=O | 162 to 165
65 | O=C(O)c1cccc(OC(F)(F)C(F)Cl)c1 (configuration not stated) | 79 to 85
66 | NC(=O)c1ccc(Cn2ccc(OCc3ccc(F)cc3F)c(Cl)c2=O)cc1 | 235 to 238
67 | COC(=O)[C@@H]1CN(CCCCN2C(=O)c3cc(Cl)ccc3S2(=O)=O)CC[C@H]1n1c(=O)[nH]c2ccccc21 (relative stereo) | 170 to 176

More lines, now with the values ahead:

Row | melting point [°C] | SMILES
68 | 175 to 177 | COc1ccc(Cc2cnc(N)nc2N)cc1OCCCSc1ccc(NC(C)=O)cc1
69 | 159 | CC(C)N(Cc1ccccc1)S(=O)(=O)N[C@@H](Cc1ccc(NC(=O)c2c(Cl)cccc2Cl)cc1)C(=O)O
70 | 219 to 221 | O=C(O)c1cc([N+](=O)[O-])c(-c2ccccc2)c([N+](=O)[O-])c1
71 | 99 to 100 | O=S1(=O)CC2(CCCCC2)[C@@H](O)[C@H](c2ccccc2)c2ccccc21 (relative stereo)
72 | 64 to 67 | CCCCCCCCCCCCCCCCOc1c2ncnc(SCC(=O)OCCCC)c2nn1C
73 | 108 to 110 | COC(=O)[C@@H]1CCCN1C(=O)c1ccc(OC)c(O)c1[N+](=O)[O-]
74 | 95.5 to 96 | C[C@H](c1ccccc1)N1C(=O)c2c(F)c(F)c(F)c(F)c2C1=O
75 | 228 to 230 | O=C(Nc1ccc(C(=O)N2Cc3cccn3Cc3ccccc32)cc1)c1ccccc1Cl
76 | 97 to 99 | COC(=O)c1ccccc1NC(=O)CCl
77 | 73 to 75 | CC1CCN(c2cc(C(C)(C)C)no2)C1=O (configuration not stated)
78 | 202 to 204 | Cc1ccc2c(NN)ccnc2c1NC(=O)c1c(Cl)cccc1Cl
79 | 180 to 181 | O=C(O)c1ccc(NCCCOc2ccc(Cl)cc2)cc1
80 | 167 to 169 | Cc1[nH]c(C(=O)Nc2ccc3[nH]ccc3c2)c(C)c1-c1nc2ccc(C(=O)c3ccccc3)cc2[nH]1
81 | 169 to 170 | O=C(N[C@H](Cc1ccccc1)C(=O)O)OCc1cc2cc(-c3ccsc3)ccc2o1
82 | 88 to 90 | CC1CCN(c2cc(F)cc(C(=O)Nc3ccc(Oc4ccnc(NC5CCCC5)n4)c4ccccc34)c2)CC1
83 | 86 to 91 | c1cnc(-c2cc(C3CC3)on2)cn1
84 | 133 to 135 | COc1cc(N2CCN(C(=O)Cn3nc(C4=NCCN4)c4cccnc43)CC2)ccc1Cl
85 | 286 to 289 | Cc1c(-c2ccccc2)sc2c1c(=O)c(C(=O)O)cn2Cc1c(F)cccc1F
86 | 103 to 105 | CC1C(=O)Oc2cc(N3CCOCC3)c(Cl)cc21 (configuration not stated)
87 | 73 to 74 | CC(=O)N(c1cccc(C(F)(F)F)c1)c1cccc(C(F)(F)F)c1
88 | 193 to 195 | CNc1nc(-c2cccc(NC(=O)c3cccc(OC)c3)c2)c2cc(OC)c(OC)cc2n1
89 | 110 | CC1(C)CC(NC(=O)CCC(C)(c2ccc(O)c(C(C)(C)C)c2)c2ccc(O)c(C(C)(C)C)c2)CC(C)(C)N1
90 | 150 to 152 | CC(=O)c1c(C)[nH]c(CC(C)C)c1C
91 | 230 to 232 | O=C(Nc1cccc(-c2c(-c3ccccc3C(F)(F)F)cnc3c(C(F)(F)F)cccc23)c1)Nc1ccccc1Cl
92 | 165 to 167 | O=C(CCc1ccccc1)Nc1ccc(C(=O)O)c(O)c1
93 | 141 to 143 | Cn1ncnc1-c1ccc(C(=O)C(=O)N2Cc3cccn3Cc3ccccc32)c(Cl)c1
94 | 223 to 225 | COc1cc(NC(=O)Nc2cccc3c2C2CC(=O)CCN2C3=O)nc2ccccc12 (configuration not stated)
95 | 121 to 122 | CCOc1cc(OCCOCc2ccccc2)cc2c1C(=O)N(COC(=O)c1c(Cl)cccc1Cl)S2(=O)=O
96 | 162 to 166 | O=C(NCCCN1CCOCC1)Nc1nc2ccc(OCc3c(Cl)cccc3Cl)cc2s1
97 | 263 to 265 | COc1ccc(C(=O)CC(=O)c2ccc(O)cc2O)cc1OC
